Columns and labels:
CDK2/CyclinE = molecular target: T1, CDK2/CyclinE (Homo sapiens, UniProt P24941); test: CDK2/CycE kinase assay (TR-FRET); format: biochemical; settings: 2 mM ATP (high ATP); median; read-out: CDK2/CyclinE, 2 mM ATP (high ATP) IC50 - [mol/l] (median)
T1 construct: GST; purchased ProQinase GmbH (Freiburg, Germany); host or cells: insect cells (Sf9)
In short: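 GST-tagged human CDK2/CycE (Sf9-expressed, ~10 ng/mL) was preincubated 15 min with compound, then run 25 min at 22 °C with 2 mM ATP and 0.75 μM biotinylated peptide, pH 8.0. Phospho-substrate was detected by TR-FRET (anti-RB pSer807/811, Eu-anti-mouse, streptavidin-XL665), 665/620 nm ratio, normalised to no-inhibitor and no-enzyme controls.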

CYCLIN K = molecular target: T2, CYCLIN K (Homo sapiens, UniProt O75909); test: CYCLIN K nuclear protein level: immunofluorescence/high content analysis in CAL-120 cells; format: cell-based; settings: 24 h, nuclear CCNK staining intensity, median, read-out: CYCLIN K degradation IF, DC50- [mol/l] (median)
T2 construct: endogenous in cells; host or cells: CAL-120 human breast cancer cells (DSMZ ACC 459)
In short: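 CAL-120 cells were incubated with compound in dose-response for 24 h at 37° C, then fixed, immunostained for CYCLIN K and Hoechst-counterstained. Confocal imaging gave nuclear intensity. DC50 is the concentration giving 50% reduction of nuclear CCNK staining relative to DMSO and reference controls.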

T2 sequence (O75909 whole entry): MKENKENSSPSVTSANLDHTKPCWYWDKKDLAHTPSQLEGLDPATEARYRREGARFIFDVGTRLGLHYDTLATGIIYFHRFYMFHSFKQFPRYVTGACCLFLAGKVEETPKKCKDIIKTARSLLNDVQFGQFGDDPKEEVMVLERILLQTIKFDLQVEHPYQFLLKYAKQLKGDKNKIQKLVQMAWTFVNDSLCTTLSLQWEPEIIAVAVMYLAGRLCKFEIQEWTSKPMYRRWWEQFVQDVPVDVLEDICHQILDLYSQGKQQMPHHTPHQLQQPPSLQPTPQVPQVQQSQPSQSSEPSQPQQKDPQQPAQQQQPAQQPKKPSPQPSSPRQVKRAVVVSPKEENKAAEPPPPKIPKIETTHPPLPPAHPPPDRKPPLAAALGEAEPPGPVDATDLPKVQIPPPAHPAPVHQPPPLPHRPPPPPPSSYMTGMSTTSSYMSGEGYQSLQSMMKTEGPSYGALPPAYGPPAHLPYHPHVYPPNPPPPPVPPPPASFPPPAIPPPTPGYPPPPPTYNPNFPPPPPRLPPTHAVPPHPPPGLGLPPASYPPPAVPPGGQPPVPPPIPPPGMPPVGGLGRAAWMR
T2 sequence (Q9NYV4 whole entry partner): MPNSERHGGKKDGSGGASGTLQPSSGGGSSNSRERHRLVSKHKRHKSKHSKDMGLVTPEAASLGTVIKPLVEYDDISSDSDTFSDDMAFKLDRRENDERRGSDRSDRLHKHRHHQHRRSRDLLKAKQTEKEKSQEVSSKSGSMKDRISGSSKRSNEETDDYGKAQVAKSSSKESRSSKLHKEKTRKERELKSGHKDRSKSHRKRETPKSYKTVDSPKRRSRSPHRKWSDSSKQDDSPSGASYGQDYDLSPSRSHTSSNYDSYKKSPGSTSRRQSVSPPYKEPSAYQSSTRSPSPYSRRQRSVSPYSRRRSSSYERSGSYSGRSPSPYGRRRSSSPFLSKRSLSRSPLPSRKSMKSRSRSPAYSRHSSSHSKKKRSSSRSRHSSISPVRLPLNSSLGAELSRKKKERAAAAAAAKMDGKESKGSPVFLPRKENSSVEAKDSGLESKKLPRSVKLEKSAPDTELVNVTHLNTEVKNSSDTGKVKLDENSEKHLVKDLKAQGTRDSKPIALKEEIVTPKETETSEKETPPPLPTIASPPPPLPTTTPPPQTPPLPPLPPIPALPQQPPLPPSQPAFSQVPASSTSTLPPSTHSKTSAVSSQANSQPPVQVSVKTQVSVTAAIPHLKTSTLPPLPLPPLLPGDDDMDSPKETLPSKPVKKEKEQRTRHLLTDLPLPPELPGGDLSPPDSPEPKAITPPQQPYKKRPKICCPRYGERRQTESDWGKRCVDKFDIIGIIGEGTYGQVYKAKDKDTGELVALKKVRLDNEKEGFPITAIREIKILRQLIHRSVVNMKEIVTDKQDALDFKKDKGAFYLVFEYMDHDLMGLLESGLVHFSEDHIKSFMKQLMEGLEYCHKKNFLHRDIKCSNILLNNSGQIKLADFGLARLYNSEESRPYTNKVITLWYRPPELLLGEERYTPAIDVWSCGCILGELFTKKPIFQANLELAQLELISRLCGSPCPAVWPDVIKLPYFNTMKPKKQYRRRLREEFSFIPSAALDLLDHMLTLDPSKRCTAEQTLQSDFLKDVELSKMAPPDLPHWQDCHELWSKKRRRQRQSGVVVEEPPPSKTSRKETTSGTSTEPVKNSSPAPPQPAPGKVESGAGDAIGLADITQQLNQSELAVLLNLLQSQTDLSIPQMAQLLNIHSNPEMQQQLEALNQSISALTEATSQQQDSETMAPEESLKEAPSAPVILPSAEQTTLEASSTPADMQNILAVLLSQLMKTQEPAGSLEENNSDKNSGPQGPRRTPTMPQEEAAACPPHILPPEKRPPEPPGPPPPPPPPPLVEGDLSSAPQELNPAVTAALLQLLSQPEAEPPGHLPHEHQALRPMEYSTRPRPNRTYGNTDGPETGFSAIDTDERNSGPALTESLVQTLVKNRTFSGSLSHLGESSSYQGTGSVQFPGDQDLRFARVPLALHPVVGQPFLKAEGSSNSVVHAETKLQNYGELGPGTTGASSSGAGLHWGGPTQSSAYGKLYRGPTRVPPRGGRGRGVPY

IC50 (CDK2/CyclinE) [µM]	DC50 (CYCLIN K) [µM]	Structure (SMILES)
> 20	0.0156	COC(C)(C)CCn1nc(NCc2nc3ccccc3[nH]2)c2ncc(C3CC3)nc21 [Example 67, N-[(1H-benzimidazol-2-yl)methyl]-6-cyclopropyl-1-(3-methoxy-3-methylbutyl)-1H-pyrazolo[3,4-b]pyrazin-3-amine]
> 20	0.0207	CN(C)CCn1nc(NCc2nc3ccccc3[nH]2)c2ncc(C3CC3)nc21 [Example 68, N-[(1H-benzimidazol-2-yl)methyl]-6-cyclopropyl-1-[2-(dimethylamino)ethyl]-1H-pyrazolo[3,4-b]pyrazin-3-amine]
> 20	0.0341	CC(C)(O)Cn1nc(NCc2nc3ccccc3[nH]2)c2ncc(C3CC3)nc21 [Example 69, 1-(3-{[(1H-benzimidazol-2-yl)methyl]amino}-6-cyclopropyl-1H-pyrazolo[3,4-b]pyrazin-1-yl)-2-methylpropan-2-ol]
> 20	0.0116	O[C@H]1C[C@H](Cn2nc(NCc3nc4ccccc4[nH]3)c3ncc(C4CC4)nc32)C1 [Example 70, trans-3-[(3-{[(1H-benzimidazol-2-yl)methyl]amino}-6-cyclopropyl-1H-pyrazolo[3,4-b]pyrazin-1-yl)methyl]cyclobutan-1-ol]
> 20	0.00883	O[C@H]1C[C@@H](Cn2nc(NCc3nc4ccccc4[nH]3)c3ncc(C4CC4)nc32)C1 [Example 71, cis-3-[(3-{[(1H-benzimidazol-2-yl)methyl]amino}-6-cyclopropyl-1H-pyrazolo[3,4-b]pyrazin-1-yl)methyl]cyclobutan-1-ol]
> 20	0.0234	OC1(Cn2nc(NCc3nc4ccccc4[nH]3)c3ncc(C4CC4)nc32)CCC1 [Example 72, 1-[(3-{[(1H-benzimidazol-2-yl)methyl]amino}-6-cyclopropyl-1H-pyrazolo[3,4-b]pyrazin-1-yl)methyl]cyclobutan-1-ol]
> 20	0.0532	OC1(Cn2nc(NCc3nc4ccccc4[nH]3)c3ncc(C4CC4)nc32)CCCC1 [Example 73, 1-[(3-{[(1H-benzimidazol-2-yl)methyl]amino}-6-cyclopropyl-1H-pyrazolo[3,4-b]pyrazin-1-yl)methyl]cyclopentan-1-ol]
> 20	0.0136	OCC1(Cn2nc(NCc3nc4ccccc4[nH]3)c3ncc(C4CC4)nc32)CCC1 [Example 74, {1-[(3-{[(1H-benzimidazol-2-yl)methyl]amino}-6-cyclopropyl-1H-pyrazolo[3,4-b]pyrazin-1-yl)methyl]cyclobutyl}methanol]
> 20	0.124	c1ccc2[nH]c(CNc3nn(CC4CCC4)c4nc(C5CC5)cnc34)nc2c1 [Example 75, N-[(1H-benzimidazol-2-yl)methyl]-1-(cyclobutylmethyl)-6-cyclopropyl-1H-pyrazolo[3,4-b]pyrazin-3-amine]
> 20	0.00811	CC(C)(O)CCn1nc(NCc2nc3ccccc3[nH]2)c2ncc(C3CC3)nc21 [Example 76, 4-(3-{[(1H-benzimidazol-2-yl)methyl]amino}-6-cyclopropyl-1H-pyrazolo[3,4-b]pyrazin-1-yl)-2-methylbutan-2-ol]
> 20	0.118	Cc1cnc2c(NCc3nc4ccccc4[nH]3)nn(C3CCN(C)CC3)c2n1 [Example 77, N-[(1H-benzimidazol-2-yl)methyl]-6-methyl-1-(1-methylpiperidin-4-yl)-1H-pyrazolo[3,4-b]pyrazin-3-amine]

Source: US20230192700A1, “PYRAZOLOPYRAZINES ACTING ON CANCERS VIA INHIBITION OF CDK12” (Bayer Aktiengesellschaft, priority 2020, published 2023)
